Measured values from patent publication US7659404B2, “Broad spectrum 2-(substituted-amino)-benzothiazole sulfonamide HIV protease inhibitors” (Tibotec Pharmaceuticals Ltd., priority 2001, dated 2010).

Key:
virus strain S (R13080) = assay: microbe, parasite or virus in culture; type: cell-based, HIV; details: FR=EC50(mutant strain)/EC50(HIV-1 strain LAI); strain S
How it was run: (§1)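 First, MT4 cells were infected with HIV (or mock-infected) and incubated five days with varying inhibitor concentrations. Next, living cells were quantified via MTT reduction, measuring absorbance at 540 nm. Finally, EC50 was derived and fold resistance calculated relative to HIV-1 strain LAI.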

virus strain F (R13025) = assay: microbe, parasite or virus in culture; type: cell-based, HIV; details: FR=EC50(mutant strain)/EC50(HIV-1 strain LAI); strain F
How it was run: as §1

[1] = system: clinically isolated HIV strain O; type: cell-based; details: FR=EC50(mutant strain)/EC50(HIV-1 strain LAI)
Description: (§2) HIV- or mock-infected MT4 cells were incubated for five days in the presence of various concentrations of the inhibitor. […] Cell viability is measured by measuring the concentration of MTT, a yellow, water soluble tetrazolium dye that is converted to a purple, water insoluble formazan in the mitochondria of living cells only. Upon solubilization of the resulting formazan crystals with isopropanol, the absorbance of the solution is monitored at 540 nm. The values correlate directly to the number of living cells remaining in the culture at the completion of the five day incubation. The inhibitory activity of the compound was monitored on the virus-infected cells and was expressed as EC50 and EC90. These values represent the amount of the compound required to protect 50% and 90%, respectively, of the cells from the cytopathogenic effect of the virus. The toxicity of the compound was measured on the mock-infected cells and was expressed as CC50, which represents the concentration of compound required to inhibit the growth of the cells by 50%. The selectivity index (SI) (ratio CC50/EC50) is an indication of the selectivity of the anti-HIV activity of the inhibitor.
(§3) Because of the increasing emergence of drug resistant HIV strains, the present compounds were tested for their potency against clinically isolated HIV strains harboring several mutations.
(§4) As a measure of the broad spectrum activity of the present compounds, the fold resistance (FR) defined as FR=EC50(mutant strain)/EC50(HIV-1 strain LAI).

[2] = system: clinically isolated HIV strain J; type: cell-based; details: FR=EC50(mutant strain)/EC50(HIV-1 strain LAI)
Description: as §2, §3, §4

[3] = system: clinically isolated HIV strain I; type: cell-based; details: FR=EC50(mutant strain)/EC50(HIV-1 strain LAI)
Description: as §2, §3, §4

[4] = system: clinically isolated HIV strain T; type: cell-based; details: FR=EC50(mutant strain)/EC50(HIV-1 strain LAI)
Description: as §2, §3, §4

[5] = system: clinically isolated HIV strain H; type: cell-based; details: FR=EC50(mutant strain)/EC50(HIV-1 strain LAI)
Description: as §2, §3, §4

| Structure (SMILES) | fold resistance (FR), strain S (virus strain S (R13080)) | fold resistance (FR), strain F (virus strain F (R13025)) | fold resistance (FR), strain O [1] | fold resistance (FR), strain J [2] | fold resistance (FR), strain I [3] | fold resistance (FR), strain T [4] | fold resistance (FR), strain H [5] |
| --- | --- | --- | --- | --- | --- | --- | --- |
| Cc1c(N)cccc1C(=O)N[C@@H](Cc1ccccc1)[C@H](O)CN(CC(C)C)S(=O)(=O)c1ccc2nc(NC(=O)CN3CCN(C)CC3)sc2c1.O=C(O)C(F)(F)F [Compound 66] | 5.6 | 4.0 | 1.0 | 1.2 | 1.0 | 87.9 | 0.9 |
| CC(C)CN(C[C@@H](O)[C@H](Cc1ccccc1)NC(=O)O[C@H]1CCOC1)S(=O)(=O)c1ccc2nc(NCCN3CCCC3)sc2c1.O=C(O)C(F)(F)F [Compound 68] | 180.7 | 65.2 | 3.5 | 3.9 | 2.4 | 775.2 | 7.3 |
| CC(=O)N(C)c1nc2ccc(S(=O)(=O)N(CC(C)C)C[C@@H](O)[C@H](Cc3ccccc3)NC(=O)OCc3cncs3)cc2s1 [Compound 80] | 26.6 | 17.4 | 8.1 | 17.6 | 3.9 | 457.6 | 5.7 |
| CC(C)CN(C[C@@H](O)[C@H](Cc1ccccc1)NC(=O)O[C@H]1CO[C@H]2OCC[C@H]21)S(=O)(=O)c1ccc2nc(NCCCN(C)C)sc2c1 [Compound 22] | 1.4 | 0.3 | 0.4 | 0.4 | 0.6 | 6.0 | 0.4 |
| CC(C)CN(CC(O)C(Cc1ccccc1)NC(=O)OC1CNC(=O)C1)S(=O)(=O)c1ccc2nc(NC(=O)CN(C)C)sc2c1 (centres unmarked) [Compound 36] | 0.2 | 0.2 | 0.2 | 0.2 | 0.5 | 0.2 | 0.6 |
| CC(C)CN(CC(O)C(Cc1ccccc1)NC(=O)OC1COC2OCCC12)S(=O)(=O)c1ccc2nc(NC(=O)CN3CCNCC3)sc2c1 (mixture of isomers) [Compound 5] | 0.6 | 0.5 | 0.4 | 0.3 | 0.6 | 2.6 | 0.6 |
| Cc1cccc(C)c1OCC(=O)N[C@@H](Cc1ccccc1)[C@H](O)CN(CC(C)C)S(=O)(=O)c1ccc2nc(NCCN(C)C)sc2c1 [Compound 40] | 12.8 | 7.2 | 3.2 | 2.7 | 6.4 | 87.8 | 2.1 |
| Cc1cccc(C)c1OCC(=O)N[C@@H](Cc1ccccc1)[C@H](O)CN(CC(C)C)S(=O)(=O)c1ccc2nc(NCCN3CCCC3)sc2c1 [Compound 46] | 7.1 | 4.7 | 3.2 | 2.8 | 3.3 | 44.4 | 1.3 |
| CC(=O)Nc1nc2ccc(S(=O)(=O)N(CC(C)C)C[C@@H](O)[C@H](Cc3ccccc3)NC(=O)c3cc([N+](=O)[O-])ccc3C)cc2s1 [Compound 72] | 118.0 | 67.0 | 24.4 | 11.4 | 26.2 | 641.1 | 24.9 |
| Cc1c(N)cccc1C(=O)N[C@@H](Cc1ccccc1)[C@H](O)CN(CC(C)C)S(=O)(=O)c1ccc2nc(NCCCN(C)C)sc2c1 [Compound 54] | 1.8 | 3.6 | 0.4 | 0.4 | 0.9 | 1.4 | 0.6 |
| CC(C)CN(C[C@@H](O)[C@H](Cc1ccccc1)NC(=O)O[C@H]1CO[C@H]2OCC[C@H]21)S(=O)(=O)c1ccc2nc(NC(=O)CN3CCNCC3)sc2c1 [Compound 17] | 0.6 | 0.3 | 0.3 | 0.2 | 0.7 | 1.0 | 0.8 |
| CC(C)CN(C[C@@H](O)[C@H](Cc1ccccc1)NC(=O)OCc1cncs1)S(=O)(=O)c1ccc2nc(NCCN(C)C)sc2c1 [Compound 48] | 13.8 | 9.4 | 4.3 | 6.5 | 2.5 | 175.0 | 2.5 |
| Cc1c(N)cccc1C(=O)N[C@@H](Cc1ccccc1)[C@H](O)CN(CC(C)C)S(=O)(=O)c1ccc2nc(NCCN3CCCC3)sc2c1 [Compound 45] | 19.9 | 17.3 | 1.3 | 1.1 | 4.0 | 103.0 | 1.2 |
| CC(C)CN(C[C@@H](O)[C@H](Cc1ccccc1)NC(=O)O[C@H]1CO[C@H]2OCC[C@H]21)S(=O)(=O)c1ccc2nc(N3CCN(C)C3=O)sc2c1 [Compound 25] | 42.5 | 26.0 | 5.6 | 6.0 | 3.5 | 619.8 | 4.7 |
| CC(C)CN(C[C@@H](O)[C@H](Cc1ccccc1)NC(=O)OCc1cccnc1)S(=O)(=O)c1ccc2nc(NCCN3CCNCC3)sc2c1 [Compound 58] | 4.4 | 2.1 | 1.7 | 2.0 | 0.7 | 27.0 | 1.6 |
| Cc1cc(C#N)cc(C)c1OCC(=O)N[C@@H](Cc1ccccc1)[C@H](O)CN(CC(C)C)S(=O)(=O)c1ccc2nc(NC(=O)CN3CCCC3)sc2c1 [Compound 75] | 19.0 | 16.3 | 18.7 | 19.4 | 7.4 | 93.6 | 3.6 |
| Cc1cccc(C)c1OCC(=O)N[C@@H](Cc1ccccc1)[C@H](O)CN(CC(C)C)S(=O)(=O)c1ccc2nc(NCCCN(C)C)sc2c1 [Compound 53] | 3.8 | 2.1 | 1.6 | 1.4 | 1.3 | 49.8 | 0.6 |
